Experimental findings from patent US12102648B2, “Orally-bioavailable nucleoside analogs” (priority 2021, dated 2024) are described below.

Read-outs that look alike come from different tables or passages of the source.

The series can be described thus: in vitro. In kind it is in vitro ADME. The settings on record: human. The procedure, abridged:
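Caco-2 monolayers cultured 19 days on inserts (TEER >600 […]); bidirectional A-to-B and B-to-A transport at 37° C over 90 min, samples quantified by LC/MS/MS. Papp, efflux ratio and recovery calculated; ER >2 flags potential efflux substrates.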

As usually defined, the Papp A→B is the apparent permeability from the apical to the basolateral side of a cell layer. Usually Papp B→A stands for the apparent permeability from the basolateral to the apical side of a cell layer. For `CNc1nc(N)nc2c1ncn2[C@@H]1O[C@H](COC(=O)CC2CCCCC2)[C@@H](OC(C)=O)[C@@]1(C)F` [Compound 215, ((2R,3R,4R,5R)-3-acetoxy-5-(2-amino-6-(methylamino)-9H-purin-9-yl)-4-fluoro-4-methyltetrahydrofuran-2-yl)methyl 2-cyclohexylacetate], where the note is “Caco-2”, the Papp A→B at 90 min is 9.3 ×10⁻⁶ cm/s, the Papp B→A at 90 min is 1.6 ×10⁻⁶ cm/s and the efflux ratio at 90 min came out at 0.18.
For the compound `CNc1nc(N)nc2c1ncn2[C@@H]1O[C@H](COC(=O)Cc2ccccc2)[C@@H](OC(C)=O)[C@@]1(C)F` [Compound 217, ((2R,3R,4R,5R)-3-acetoxy-5-(2-amino-6-(methylamino)-9H-purin-9-yl)-4-fluoro-4-methyltetrahydrofuran-2-yl)methyl 2-phenylacetate], the Papp A→B at 90 min (Caco-2 monolayer, apical to basolateral, 90-minute incubation, read-out: Papp, A-B) is 14 ×10⁻⁶ cm/s. In addition, the Papp B→A at 90 min (Caco-2 monolayer, basolateral to apical, 90-minute incubation, read-out: Papp, B-A) stood at 6.1 ×10⁻⁶ cm/s. Also, the efflux ratio at 90 min (Caco-2 monolayer, ER>2 indicates potential efflux transporter substrate, read-out: ER (efflux ratio)) turned out to be 0.45.
Turning to `CCC(=O)OC[C@H]1O[C@@H](n2cnc3c(NC)nc(N)nc32)[C@](C)(F)[C@@H]1OC(C)=O` [Compound 220, ((2R,3R,4R,5R)-3-acetoxy-5-(2-amino-6-(methylamino)-9H-purin-9-yl)-4-fluoro-4-methyltetrahydrofuran-2-yl)methyl propionate], under “Caco-2”, the Papp A→B at 90 min is 20 ×10⁻⁶ cm/s, the Papp B→A at 90 min is 13 ×10⁻⁶ cm/s and the efflux ratio at 90 min is 0.64.
As for `CNc1nc(N)nc2c1ncn2[C@@H]1O[C@H](COC(=O)CC2CCCCC2)[C@@H](OC(=O)C(C)C)[C@@]1(C)F` [Compound 223, (2R,3R,4R,5R)-5-[2-amino-6-(methylamino)purin-9-yl]-2-{[(2-cyclohexylacetyl)oxy]methyl}-4-fluoro-4-methyloxolan-3-yl 2-methylpropanoate], under “Caco-2”, the apparent permeability from apical to basolateral (Papp A→B) at 90 min is 20 ×10⁻⁶ cm/s, the Papp B→A at 90 min is 6.9 ×10⁻⁶ cm/s and the efflux ratio at 90 min amounted to 0.34.
Turning to `CNc1nc(N)nc2c1ncn2[C@@H]1O[C@H](COC(=O)C(C)C)[C@@H](OC(=O)C(C)C)[C@@]1(C)F` [Compound 227, (2R,3R,4R,5R)-5-(2-amino-6-(methylamino)-9H-purin-9-yl)-4-fluoro-2-((isobutyryloxy)methyl)-4-methyltetrahydrofuran-3-yl isobutyrate], under “Caco-2”, the Papp A→B at 90 min amounted to 8.5 ×10⁻⁶ cm/s, the Papp B→A at 90 min is 3.2 ×10⁻⁶ cm/s and the efflux ratio at 90 min came to 0.4.
On to `CCC(=O)O[C@@H]1[C@@H](COC(=O)C(C)C)O[C@@H](n2cnc3c(NC)nc(N)nc32)[C@]1(C)F` [Compound 235, ((2R,3R,4R,5R)-5-(2-amino-6-(methylamino)-9H-purin-9-yl)-4-fluoro-4-methyl-3-(propionyloxy)tetrahydrofuran-2-yl)methyl isobutyrate], for which, under “Caco-2”, the Papp A→B at 90 min is 11 ×10⁻⁶ cm/s, the Papp B→A at 90 min came out at 4.5 ×10⁻⁶ cm/s and the efflux ratio at 90 min worked out at 0.4.
As for `CCCCCCCCCCCCCCCCCCOCCOP(=O)(O)OC[C@H]1O[C@@H](n2cnc3c(NC)nc(N)nc32)[C@](C)(F)[C@@H]1O` [Compound 254, ((2R,3R,4R,5R)-5-(2-amino-6-(methylamino)-9H-purin-9-yl)-4-fluoro-3-hydroxy-4-methyltetrahydrofuran-2-yl)methyl (2-(octadecyloxy)ethyl) hydrogen phosphate], under “Caco-2”, the Papp A→B at 90 min is 2.2 ×10⁻⁶ cm/s, the Papp B→A at 90 min stood at 1.7 ×10⁻⁶ cm/s and the efflux ratio at 90 min came out at 0.8.
Take `CC(C)CC(=O)N[C@H](C(=O)OC[C@H]1O[C@@](C#N)(c2ccc3c(N)ncnn23)[C@H](O)[C@@H]1O)C(C)C` [Compound 255, [(2R,3S,4R,5R)-5-{4-aminopyrrolo[2,1-f][1,2,4]triazin-7-yl}-5-cyano-3,4-dihydroxyoxolan-2-yl]methyl (2S)-3-methyl-2-(3-methylbutanamido)butanoate]: for the setting “Caco-2”, the Papp A→B at 90 min came out at 2.1 ×10⁻⁶ cm/s, the Papp B→A at 90 min was 5.3 ×10⁻⁶ cm/s and the efflux ratio at 90 min was 2.5.
With `N#C[C@@]1(c2ccc3c(N)ncnn23)O[C@H](COC(=O)CC2CCOCC2)[C@@H](O)[C@H]1O` [Compound 257, ((2R,3S,4R,5R)-5-(4-aminopyrrolo[2,1-f][1,2,4]triazin-7-yl)-5-cyano-3,4-dihydroxytetrahydrofuran-2-yl)methyl 2-(tetrahydro-2H-pyran-4-yl)acetate], for the setting “Caco-2”, the Papp A→B at 90 min was determined as 0.03 ×10⁻⁶ cm/s, the Papp B→A at 90 min stood at 1.4 ×10⁻⁶ cm/s and the efflux ratio at 90 min was found to be 46.
Take `N#C[C@@]1(c2ccc3c(N)ncnn23)O[C@H](COC(=O)CC2CC2)[C@@H](O)[C@H]1O` [Compound 258, [(2R,3S,4R,5R)-5-{4-aminopyrrolo[2,1-f][1,2,4]triazin-7-yl}-5-cyano-3,4-dihydroxyoxolan-2-yl]methyl 2-cyclopropylacetate]: under “Caco-2”, the Papp A→B at 90 min came out at 0.09 ×10⁻⁶ cm/s, the Papp B→A at 90 min was found to be 0.3 ×10⁻⁶ cm/s and the efflux ratio at 90 min worked out at 3.5.
For the compound `N#C[C@@]1(c2ccc3c(N)ncnn23)O[C@H](COC(=O)CC2CCCC2)[C@@H](O)[C@H]1O` [Compound 259, ((2R,3S,4R,5R)-5-(4-aminopyrrolo[2,1-f][1,2,4]triazin-7-yl)-5-cyano-3,4-dihydroxytetrahydrofuran-2-yl)methyl 2-cyclopentylacetate], under “Caco-2”, the Papp A→B at 90 min is 2 ×10⁻⁶ cm/s, the Papp B→A at 90 min was determined as 0.6 ×10⁻⁶ cm/s and the efflux ratio at 90 min was 0.3.
On the same counts, the results for `N#C[C@@]1(c2ccc3c(N)ncnn23)O[C@H](COC(=O)CC2CCCCCC2)[C@@H](O)[C@H]1O` [Compound 261, ((2R,3S,4R,5R)-5-(4-aminopyrrolo[2,1-f][1,2,4]triazin-7-yl)-5-cyano-3,4-dihydroxytetrahydrofuran-2-yl)methyl 2-cycloheptylacetate] are 0.79 ×10⁻⁶ cm/s, 1.1 ×10⁻⁶ cm/s and 1.4.
As to `N#C[C@@]1(c2ccc3c(N)ncnn23)O[C@H](COC(=O)CC2CCC(F)(F)CC2)[C@@H](O)[C@H]1O` [Compound 262, ((2R,3S,4R,5R)-5-(4-aminopyrrolo[2,1-f][1,2,4]triazin-7-yl)-5-cyano-3,4-dihydroxytetrahydrofuran-2-yl)methyl 2-(4,4-difluorocyclohexyl)acetate], under “Caco-2”, the Papp A→B at 90 min is 0.91 ×10⁻⁶ cm/s, the Papp B→A at 90 min was determined as 4.4 ×10⁻⁶ cm/s and the efflux ratio at 90 min came to 4.8.
`N#C[C@@]1(c2ccc3c(N)ncnn23)O[C@H](COC(=O)CC23CC4CC(CC(C4)C2)C3)[C@@H](O)[C@H]1O` [Compound 263, ((2R,3S,4R,5R)-5-(4-aminopyrrolo[2,1-f][1,2,4]triazin-7-yl)-5-cyano-3,4-dihydroxytetrahydrofuran-2-yl)methyl 2-((3R,5R,7R)-adamantan-1-yl)acetate]: under “Caco-2”, the Papp A→B at 90 min is 13 ×10⁻⁶ cm/s, the Papp B→A at 90 min came out at 19 ×10⁻⁶ cm/s and the efflux ratio at 90 min is 1.5.
Regarding `CCCCC(=O)Nc1ncnn2c([C@]3(C#N)O[C@H](CO)[C@@H](O)[C@H]3O)ccc12` [Compound 264, N-(7-((2R,3R,4S,5R)-2-cyano-3,4-dihydroxy-5-(hydroxymethyl)tetrahydrofuran-2-yl)pyrrolo[2,1-f][1,2,4]triazin-4-yl)pentanamide], for the setting “Caco-2”, the Papp A→B at 90 min came to 0.03 ×10⁻⁶ cm/s, the Papp B→A at 90 min came to 0.53 ×10⁻⁶ cm/s and the efflux ratio at 90 min came to 20.
On the same counts, the results for `N#C[C@@]1(c2ccc3c(N)ncnn23)O[C@H](COC(=O)CC2CCC2)[C@@H](O)[C@H]1O` [Compound 265, ((2R,3S,4R,5R)-5-(4-aminopyrrolo[2,1-f][1,2,4]triazin-7-yl)-5-cyano-3,4-dihydroxytetrahydrofuran-2-yl)methyl 2-cyclobutylacetate] are 0.29 ×10⁻⁶ cm/s, 0.36 ×10⁻⁶ cm/s and 1.2.
The like results for `N#C[C@@]1(c2ccc3c(N)ncnn23)O[C@H](COC(=O)C[C@H]2CC[C@H](N)CC2)[C@@H](O)[C@H]1O` [Compound 266, ((2R,3S,4R,5R)-5-(4-aminopyrrolo[2,1-f][1,2,4]triazin-7-yl)-5-cyano-3,4-dihydroxytetrahydrofuran-2-yl)methyl 2-((1r,4R)-4-aminocyclohexyl)acetate] were, in that order, 0.19 ×10⁻⁶ cm/s, 0.38 ×10⁻⁶ cm/s and 2.
`N#C[C@@]1(c2ccc3c(N)ncnn23)O[C@H](COC(=O)CC2CCNCC2)[C@@H](O)[C@H]1O` [Compound 267]: under “Caco-2”, the Papp A→B at 90 min turned out to be 0.42 ×10⁻⁶ cm/s, the Papp B→A at 90 min is 0.27 ×10⁻⁶ cm/s and the efflux ratio at 90 min amounted to 0.65.
On the same counts, the results for `CS(=O)(=O)N1CCC(CC(=O)OC[C@H]2O[C@@](C#N)(c3ccc4c(N)ncnn34)[C@H](O)[C@@H]2O)CC1` [Compound 268, ((2R,3S,4R,5R)-5-(4-aminopyrrolo[2,1-f][1,2,4]triazin-7-yl)-5-cyano-3,4-dihydroxytetrahydrofuran-2-yl)methyl 2-(1-(methylsulfonyl)piperidin-4-yl)acetate] are 0.04 ×10⁻⁶ cm/s, 1.8 ×10⁻⁶ cm/s and 45.
Regarding `CC(C)(C(=O)OC[C@H]1O[C@@](C#N)(c2ccc3c(N)ncnn23)[C@H](O)[C@@H]1O)C1CCCCC1` [Compound 269, ((2R,3S,4R,5R)-5-(4-aminopyrrolo[2,1-f][1,2,4]triazin-7-yl)-5-cyano-3,4-dihydroxytetrahydrofuran-2-yl)methyl 2-cyclohexyl-2-methylpropanoate], under “Caco-2”, the Papp A→B at 90 min was 15 ×10⁻⁶ cm/s, the Papp B→A at 90 min is 20 ×10⁻⁶ cm/s and the efflux ratio at 90 min was determined as 1.3.
As for `N#C[C@@]1(c2ccc3c(N)ncnn23)O[C@H](COC(=O)CC2CCC(C(F)(F)F)CC2)[C@@H](O)[C@H]1O` (stereo partly drawn) [Compound 270, ((2R,3S,4R,5R)-5-(4-aminopyrrolo[2,1-f][1,2,4]triazin-7-yl)-5-cyano-3,4-dihydroxytetrahydrofuran-2-yl)methyl 2-(4-(trifluoromethyl)cyclohexyl)acetate], for the setting “Caco-2”, the Papp A→B at 90 min came to 1.9 ×10⁻⁶ cm/s, the Papp B→A at 90 min was found to be 6.9 ×10⁻⁶ cm/s and the efflux ratio at 90 min amounted to 3.7.
